Experimental data reported in US20210269483A1, “PEPTIDE COMPOUNDS” (ULTUPHARMA AB, priority 2018, published 2021).
In brackets after ≈: the same amount, converted by molar mass. Where two headings read alike, the source gives them in different places. Starred links: 1 amine or outer side, 2 acyl side, 3 side chain; linkers in the order of their positions; H or OH if unused. Positions of bridges follow the written chain, without caps; N, C: chain ends. Non-standard residues stand in square brackets, D forms with d. Residues, ends and D or L forms follow the SMILES beside them. X3 = CC(C)CCCCCCC[C@H](CC(=O)[*:1])O[*:2]; X4 = CCCCCCC=CC[C@H](CC(=O)[*:1])O[*:2]; Val(3-OH) = CC(C)(O)[C@H](N)C(=O)O; X1 = C/C=C(/N[*:1])C(=O)[*:2]; Dab = NCC[C@H](N)C(=O)O; Dap = NC[C@H](N)C(=O)O

Columns and labels:
[1] = test system: A. baumannii; format: cell-based, Acinetobacter baumannii
Description: (§1) 2015. M7-A10. Methods for dilution antimicrobial susceptibility tests for bacteria that grow aerobically, 10th ed. Approved standard. CLSI, Wayne, Pa.).
(§2) A) In the broth micro-dilution method, the test media were either AM3 Broth (BD Difco Ltd) mixed with phosphate buffered saline (PBS, Amresco LLC, Solon, USA) in 1:4 ratio (E. colt A. baumannii, Enterobacter cloacae, Klebsiella pneumonia and P. aeruginosa), AM3 Broth mixed with PBS in 1:1 ratio (S. aureus) or Malt Extract (ME; 15 g Malt Extract Dico Ltd. in 1000 mL deionized H2O; Aspergillus fumigatus). Prior to MIC-tests, the bacterial cell concentration/fungal spore concentration was adjusted to between 1 and 5×10^5 cells/spores per mL. […] Afterwards, suspensions of pathogen cells in the appropriate medium were dispensed to the wells of microtiter plates and the growth of pathogens were monitored after 16 to 20 h of incubation at 37° C. in the dark. Positive control comprised respective pathogen cells suspended in untreated sterile appropriate media without addition of compounds(s) and negative control comprised the medium only. The MIC was defined as the lowest concentration of each compound with no visible growth of pathogen. All MIC tests were performed in duplicate and/or triplicate and repeated at least twice.

[2] = test system: E. cloacae; format: cell-based, Enterobacter cloacae
Description: as §1, §2

[3] = test system: E. coli; format: cell-based, Escherichia coli
Description: as §1, §2

[4] = test system: K. pneumoniae; format: cell-based, Klebsiella pneumonia
Description: as §1, §2

[5] = test system: P. aeruginosa; format: cell-based, Pseudomonas aeruginosa
Description: as §1, §2

[6] = test system: S. aureus; format: cell-based, Staphylococcus aureus
Description: as §1, §2

[7] = test system: HepG2
Experimental: IC50, haemolysis rate and frequency of resistance (FoR, Table 4) was determined using standard protocols by different CROs.

[8] = method A, only lower limit of concentration range shown ("16" means "16-32")

MIC A. baumannii LMG1041T [1] [µg/mL]	MIC E. cloacae LMG2783T [2] [µg/mL]	MIC E. coli LMG15862 [3] [µg/mL]	MIC K. pneumonia LMG20218 [4] [µg/mL]	MIC P. aeruginosa LMG6395 [5] [µg/mL]	MIC S. aureus LMG15975 [6] [µg/mL]	IC50 (HepG2) [7] [µg/mL]	MIC A. baumannii LMG1041T [1, 8] [µg/mL]	MIC E. cloacae LMG2783T [2, 8] [µg/mL]	MIC E. coli LMG15862 [3, 8] [µg/mL]	MIC K. pneumonia LMG20218 [4, 8] [µg/mL]	MIC P. aeruginosa LMG6395 [5, 8] [µg/mL]	MIC S. aureus LMG15975 [6, 8] [µg/mL]	IC50 (HepG2) ([7]; HepG2, determined by a CRO) [µg/mL]	Compound
1 (≈ 0.875 µM)	2 (≈ 1.75 µM)	1 (≈ 0.875 µM)	2 (≈ 1.75 µM)	4 (≈ 3.5 µM)	4 (≈ 3.5 µM)									C/C=C1/NC(=O)[C@H](CCN)NC(=O)[C@H](CC(C)C)NC(=O)[C@H](CN)NC(=O)C[C@@H](CC=CCCCCCC)OC(=O)[C@H](CC(=O)O)NC(=O)[C@H](C(C)(C)O)NC(=O)[C@@H](Cc2ccccc2)NC(=O)[C@H](CN)NC(=O)[C@H]([C@@H](C)O)NC1=O [U756, cyclo-((R)-3-hydroxydodec-5-enoyl-L-DAPA-L-Leu-L-DABA-ABA-L-Thr-L-DAPA-D-Phe-L-OHVal-L-Asp)] ([Dap]L[Dab][X1]T[Dap][dF][Val(3-OH)]D; linker N-C via X4)
4 (≈ 3.45 µM)	8 (≈ 6.9 µM)	2 (≈ 1.73 µM)	16 (≈ 13.8 µM)	8 (≈ 6.9 µM)	16 (≈ 13.8 µM)	8 (≈ 6.9 µM)								C/C=C1/NC(=O)[C@H](CCN)NC(=O)[C@H](CC(C)C)NC(=O)[C@H](CN)NC(=O)C[C@@H](CCCCCCCC(C)C)OC(=O)[C@H](CC(=O)O)NC(=O)[C@H](C(C)(C)O)NC(=O)[C@@H](Cc2ccccc2)NC(=O)[C@H](CN)NC(=O)[C@H]([C@@H](C)O)NC1=O [U773, cyclo-((R)-3-hydroxy-11-methyldodecanoyl-L-DAPA-L-Leu-L-DABA-ABA-L-Thr-L-DAPA-D-Phe-L-OHVal-L-Asp)] ([Dap]L[Dab][X1]T[Dap][dF][Val(3-OH)]D; linker N-C via X3)
4 (≈ 3.5 µM)	16 (≈ 14 µM)	4 (≈ 3.5 µM)	>32	8 (≈ 7 µM)	>32	9 (≈ 7.87 µM)								C/C=C1/NC(=O)[C@H](CCN)NC(=O)[C@H](CC(C)C)NC(=O)[C@H](CN)NC(=O)C[C@@H](CCCCCCCC(C)C)OC(=O)[C@H](CC(=O)O)NC(=O)[C@H](C(C)C)NC(=O)[C@@H](Cc2ccccc2)NC(=O)[C@H](CN)NC(=O)[C@H]([C@@H](C)O)NC1=O [U793, cyclo-((R)-3-hydroxy-11-methyldodecanoyl-L-DAPA-L-Leu-L-DABA-ABA-L-Thr-L-DAPA-D-Phe-L-Val-L-Asp)] ([Dap]L[Dab][X1]T[Dap][dF]VD; linker N-C via X3)
16 (≈ 13.7 µM)	>32	16 (≈ 13.7 µM)	>32	>32	>32	35 (≈ 29.9 µM)								C/C=C1/NC(=O)[C@H](CCN)NC(=O)[C@H](CC(C)C)NC(=O)[C@H](CC(N)=O)NC(=O)C[C@@H](CCCCCCCC(C)C)OC(=O)[C@H](CC(=O)O)NC(=O)[C@H](C(C)C)NC(=O)[C@@H](Cc2ccccc2)NC(=O)[C@H](CN)NC(=O)[C@H]([C@@H](C)O)NC1=O [U824, cyclo-((R)-3-hydroxy-11-methyldodecanoyl-L-Asn-L-Leu-L-DABA-ABA-L-Thr-L-DAPA-D-Phe-L-Val-L-Asp)] (NL[Dab][X1]T[Dap][dF]VD; linker N-C via X3)
							16	16	16	8	16	>32	72	Table 2 cyclic lipodepsipeptide: R C7H15; DAPA-Leu-DABA-ABA-Thr-DAPA-Phe-OHVal-Asp [U744]
							4	4	2	4	8	16	29	Table 2 cyclic lipodepsipeptide: R C8H17; DAPA-Leu-DABA-ABA-Thr-DAPA-Phe-OHVal-Asp [U751]
